In patent publication US11999806B2, “Broad-spectrum polypeptide against enterovirus and application thereof” (WUHAN INSTITUTE OF VIROLOGY, CHINESE ACADEMY OF SCIENCES, priority 2018, dated 2024):
Several values for one entry are separate records, joined by “and”; a condition that tells them apart may be missing. Equal values may be shown once. Read-outs that look alike come from different tables or passages of the source. Non-standard residues stand in square brackets, D forms with d. Residues, ends and D or L forms follow the SMILES beside them. No end group written: not given here.

Tests used:
[1] = Cytotoxicity by CCK-8 in RD cells; format: cell-based; details: human; for viability at 24 h, 0.01 µM: 0.01 μM polypeptide; for viability at 24 h, 0.01 µM / viability at 24 h, 0.1 µM / viability at 24 h, 1 µM / viability at 24 h, 10 µM: untreated = 100%; for viability at 24 h, 0.1 µM: 0.1 μM polypeptide; for viability at 24 h, 1 µM: 1 μM polypeptide; for viability at 24 h, 10 µM: 10 μM polypeptide; for viability at 24 h, 20 µM: 20 μM polypeptide; for viability at 24 h, 30 µM: 30 μM polypeptide; for viability at 24 h, 40 µM: 40 μM polypeptide
Experimental: (§1) The experiment was performed as follows. • (1) RD cells were plated in a 96-well plate at 100 μl per well. • (2) After the cells reached 70%-80% confluence, the MEM medium containing 10% serum was replaced with a MEM medium containing 2% serum. Then, polypeptide P2 was added to generate gradient concentrations of 0.01 μM, 0.1 μM, 1 μM, 10 μM, and 100 μM (final concentration), respectively. • (3) The test was performed 24 hours after the addition of the polypeptide, and 10 μl of viable cell detection reagent CCK-8 was added to each well and mixed well. • (4) The plate was incubated at 37° C. for 2 h. • (5) The absorbance value at OD450 was measured with a microplate reader.
as §1, with “P1” for “P2”, “concentrations),” for “concentration),”
(§2) RD cells were used to test the antiviral effect of polypeptide P1. When RD cells reached 80% confluence, polypeptide P1 was added at concentrations of 0 μM (control group), 0.01 μM, 0.1 μM, 1 μM, 10 μM, and 100 μM, respectively. Three parallel wells were used for each concentration. The test was carried out 24 hours later, and the cell viability was detected using the CCK-8 kit.
as §1, with “3A-TAT-EP” for “P2”, “concentrations),” for “concentration),”
as §2, with “3A-TAT-EP.” for “P1.”, “3A-TAT-EP” for “P1”
as §1, with “Then, 3A-EP-DRI or 3A-EP-PEG4-PA” for “Then, polypeptide P2”, “and 50” for “and 100”, “(final concentrations),” for “(final concentration),”
as §2, with “polypeptides 3A-EP-DRI and 3A-EP-PEG4-PA.” for “polypeptide P1.”, “3A-EP-DRI or 3A-EP-PEG4-PA” for “P1”, “50” for “100”, “kit. […]” for “kit.”

[2] = tested on: RD cells; assay: Cytotoxicity by CCK-8 in RD cells; format: cell-based; details: RD cells; for Cell viability (%): 24 h; for cytotoxicity, result in words: CCK-8, 24 h
Experimental: as §1
as §1, with “P1” for “P2”, “concentrations),” for “concentration),”
as §2
as §1, with “3A-TAT-EP” for “P2”, “concentrations),” for “concentration),”
as §2, with “3A-TAT-EP.” for “P1.”, “3A-TAT-EP” for “P1”
as §1, with “Then, 3A-EP-DRI or 3A-EP-PEG4-PA” for “Then, polypeptide P2”, “and 50” for “and 100”, “(final concentrations),” for “(final concentration),”
as §2, with “polypeptides 3A-EP-DRI and 3A-EP-PEG4-PA.” for “polypeptide P1.”, “3A-EP-DRI or 3A-EP-PEG4-PA” for “P1”, “50” for “100”, “kit. […]” for “kit.”

[3] = Table 1 summary, cell line not given, read-out: CC50
[4] = RD cells, 24 h, read-out: Cell viability (%)
[5] = RD cells, 24 h (Table 6), read-out: Cell viability (%)
[6] = RD cells, 50 μM polypeptide, 24 h (Table 6), read-out: Cell viability (%)

CC(=O)N[C@H](CCCNC(=N)N)C(=O)N[C@H](CS)C(=O)N[C@H](Cc1ccc(O)cc1)C(=O)N[C@H](CCC(N)=O)C(=O)N[C@H](CCCNC(=N)N)C(=O)N[C@@H](C(=O)N[C@H](CCC(=O)O)C(=O)N[C@H](CCC(=O)O)C(=O)N1CCC[C@@H]1C(=O)N1CCC[C@@H]1C(=O)N[C@H](CCCNC(=N)N)C(=O)N[C@H](CCCNC(=N)N)C(=O)N[C@H](CCCNC(=N)N)C(=O)N[C@H](CCC(N)=O)C(=O)N[C@H](CCCNC(=N)N)C(=O)N[C@H](CCCNC(=N)N)C(=O)N[C@H](CCCCN)C(=O)N[C@H](CCCCN)C(=O)N[C@H](CCCNC(=N)N)C(=O)NCC(=O)N[C@H](Cc1ccc(O)cc1)C(N)=O)C(C)C [ER-DRI] (Ac-[dR][dC][dY][dQ][dR][dV][dE][dE][dP][dP][dR][dR][dR][dQ][dR][dR][dK][dK][dR]G[dY]-NH2)
viability at 24 h, 0.46875 µM ([1]; RD cells, 0.46875 μM, 24 h, read-out: Cell viability (%)): 103% | viability at 24 h, 2.34375 µM ([1]; RD cells, 2.34375 μM, 24 h, read-out: Cell viability (%)): 104% | viability at 24 h, 4.6875 µM ([1]; RD cells, 4.6875 μM, 24 h, read-out: Cell viability (%)): 101% | viability at 24 h, 9.375 µM ([1]; RD cells, 9.375 μM, 24 h, read-out: Cell viability (%)): 96% | viability at 24 h, 18.75 µM ([1]; RD cells, 18.75 μM, 24 h, read-out: Cell viability (%)): 95.8% | viability at 24 h, 37.5 µM ([1]; RD cells, 37.5 μM, 24 h, read-out: Cell viability (%)): 86% | viability at 24 h, 75 µM ([1]; RD cells, 75 μM, 24 h, read-out: Cell viability (%)): 68.9% | viability at 24 h, 150 µM ([1]; RD cells, 150 μM, 24 h, read-out: Cell viability (%)): 34% | viability at 24 h, 300 µM ([1]; RD cells, 300 μM, 24 h, read-out: Cell viability (%)): 18.2% | CC50 at 24 h ([1]; RD cells, CCK-8, 24 h, Example 15, read-out: 50% cytotoxic concentration (CC50)): 117 µM | Cell viability (%) ([2]; 0.46875 μM): 100.2% and 99.28% | Cell viability (%) ([2]; 2.34375 μM): 98.83% and 96.33% | Cell viability (%) ([2]; 4.6875 μM): 98.51% and 97.63% | Cell viability (%) ([2]; 9.375 μM): 96.79% and 94.15% | Cell viability (%) ([2]; 18.75 μM): 91.14% and 89.01% | Cell viability (%) ([2]; 37.5 μM): 86.77% and 86.97% | Cell viability (%) ([2]; 75 μM): 70.42% and 71.95% | Cell viability (%) ([2]; 150 μM): 34.62% and 34.08% | Cell viability (%) ([2]; 300 μM): 17.58% and 18.69% | cytotoxicity, result in words [2]: very low toxicity

YGRKKRRQRRRGSGEAVREYCK [BP8]
viability at 24 h, 3.0625 µM ([1]; RD cells, 3.0625 μM, 24 h, CCK-8 4 h (Example 18), read-out: Cell viability (%)): 102% | viability at 24 h, 6.125 µM ([1]; RD cells, 6.125 μM, 24 h, CCK-8 4 h (Example 18), read-out: Cell viability (%)): 101% | viability at 24 h, 12.5 µM ([1]; RD cells, 12.5 μM, 24 h, CCK-8 4 h (Example 18), read-out: Cell viability (%)): 94.9% | viability at 24 h, 25 µM ([1]; RD cells, 25 μM, 24 h, CCK-8 4 h (Example 18), read-out: Cell viability (%)): 93.4% | viability at 24 h, 50 µM ([1]; RD cells, 50 μM, 24 h, CCK-8 4 h (Example 18), read-out: Cell viability (%)): 95.2% | viability at 24 h, 100 µM ([1]; RD cells, 100 μM, 24 h, CCK-8 4 h (Example 18), read-out: Cell viability (%)): 93.1% | viability at 24 h, 200 µM ([1]; RD cells, 200 μM, 24 h, CCK-8 4 h (Example 18), read-out: Cell viability (%)): 88.9% | CC50 at 24 h [1, 3]: > 200 µM | Cell viability (%) ([2]; 3.0625 μM, CCK-8 4 h (Example 18)): 103.1369% and 104.4% | Cell viability (%) ([2]; 6.125 μM, CCK-8 4 h (Example 18)): 103.5158% | Cell viability (%) ([2]; 12.5 μM, CCK-8 4 h (Example 18)): 99.35% and 104.8421% | Cell viability (%) ([2]; 25 μM, CCK-8 4 h (Example 18)): 97.26% and 99.85% | Cell viability (%) ([2]; 50 μM, CCK-8 4 h (Example 18)): 94.17% and 97.64% | Cell viability (%) ([2]; 100 μM, CCK-8 4 h (Example 18)): 93.6% and 96.25% | Cell viability (%) ([2]; 200 μM, CCK-8 4 h (Example 18)): 92.08% | cytotoxicity, result in words [2]: not toxic to cells within 200 μM

CC[C@@H](C)[C@@H](NC(=O)[C@H]1CCCN1C(C)=O)C(=O)N[C@@H](C(=O)N[C@H](Cc1c[nH]c2ccccc12)C(=O)NCC(=O)N[C@H](CCC(N)=O)C(=O)N[C@H](CCC(=O)O)C(=O)N[C@H](CCCNC(=N)N)C(=O)N[C@H](CS)C(=O)N[C@H](Cc1ccc(O)cc1)C(=O)N[C@H](CCC(N)=O)C(=O)N[C@H](CCCNC(=N)N)C(=O)N[C@@H](C(=O)N[C@H](CCC(=O)O)C(=O)N[C@H](CCC(=O)O)C(=O)N1CCC[C@@H]1C(=O)N1CCC[C@@H]1C(=O)N[C@H](CCCNC(=N)N)C(=O)N[C@H](CCCNC(=N)N)C(=O)N[C@H](CCCNC(=N)N)C(=O)N[C@H](CCC(N)=O)C(=O)N[C@H](CCCNC(=N)N)C(=O)N[C@H](CCCNC(=N)N)C(=O)N[C@H](CCCCN)C(=O)N[C@H](CCCCN)C(=O)N[C@H](CCCNC(=N)N)C(=O)NCC(=O)N[C@H](Cc1ccc(O)cc1)C(N)=O)C(C)C)[C@H](C)CC [3A-EP-DRI]
viability at 24 h, 0.01 µM [1, 4]: 106% | viability at 24 h, 0.1 µM [1, 4]: 95.9% | viability at 24 h, 1 µM [1, 4]: 91.3% | viability at 24 h, 10 µM [1, 4]: 95.7% | viability at 24 h, 20 µM [1, 5]: 101% | viability at 24 h, 30 µM [1, 5]: 99% | viability at 24 h, 40 µM [1, 5]: 89% | viability at 24 h, 50 µM [1, 6]: 78.5% | CC50 at 24 h [1, 3]: > 100 µM | cytotoxicity, result in words [2]: not toxic to cells within 50 μM

CCCCCCCCCCCCCCCC(=O)NCCCC[C@H](NC(=O)CCOCCOCCOCCOCCNC(=O)[C@H](CCCCN)NC(=O)[C@H](C)NC(=O)[C@@H]1CCCN1C(=O)[C@@H](NC(=O)[C@@H](NC(=O)[C@H](Cc1c[nH]c2ccccc12)NC(=O)CNC(=O)[C@H](CCC(N)=O)NC(=O)[C@H](CCC(=O)O)NC(=O)[C@H](CCCNC(=N)N)NC(=O)[C@H](CS)NC(=O)[C@H](Cc1ccc(O)cc1)NC(=O)[C@H](CCC(N)=O)NC(=O)[C@H](CCCNC(=N)N)NC(=O)[C@@H](NC(=O)[C@H](CCC(=O)O)NC(=O)[C@@H](N)CCC(=O)O)C(C)C)[C@@H](C)CC)[C@@H](C)CC)C(=O)O [3A-EP-PEG4-PA]
viability at 24 h, 0.01 µM [1, 4]: 107% | viability at 24 h, 0.1 µM [1, 4]: 94.9% | viability at 24 h, 1 µM [1, 4]: 89.9% | viability at 24 h, 10 µM [1, 4]: 95.3% | viability at 24 h, 20 µM [1, 5]: 98.4% | viability at 24 h, 30 µM [1, 5]: 99.5% | viability at 24 h, 40 µM [1, 5]: 99.3% | viability at 24 h, 50 µM [1, 6]: 94.8% | CC50 at 24 h [1, 3]: > 100 µM | cytotoxicity, result in words [2]: not toxic to cells within 50 μM
